Source: paper PMC7554340, “A Novel Dual-Targeted α-Helical Peptide With Potent Antifungal Activity Against Fluconazole-Resistant Candida albicans Clinical Isolates” (Frontiers in Microbiology, 2020)
No end group written: not given here.

How the values were obtained:
C. albicans cgmcc 2.2086 = test: Antifungal activity assay (broth microdilution, MIC/MFC); assay type: cell-based, Candida albicans; conditions: for MFC: 50 μl of MIC wells plated on YPD agar, 28°C, 48 h, lowest concentration that completely killed fungal cells, consensus of at least three independent experiments; for MIC: cgmcc 2.2086, 48 h, pH 7
[1] = test system: C. tropicalis cgmcc 2.1975; test: as above; assay type: cell-based, Candida tropicalis; conditions: for MFC: 50 μl of MIC wells plated on YPD agar, 28°C, 48 h, lowest concentration that completely killed fungal cells, consensus of at least three independent experiments; for MIC: cgmcc 2.1975, 48 h, pH 7
[2] = test system: C. parapsilosis cgmcc 2.3989; test: as above; assay type: cell-based, Candida parapsilosis; conditions: for MFC: 50 μl of MIC wells plated on YPD agar, 28°C, 48 h, lowest concentration that completely killed fungal cells, consensus of at least three independent experiments; for MIC: cgmcc 2.3989, 48 h, pH 7
C. albicans 56452 = conditions: 56452, 48 h; for MIC: pH 7
C. albicans 56214 = conditions: 56214, 48 h; for MIC: pH 7
C. albicans 14936 = conditions: 14936, 48 h; for MIC: pH 7
C. albicans 17546 = conditions: 17546, 48 h; for MIC: pH 7
C. albicans 58288 = conditions: 58288, 48 h; for MIC: pH 7
C. albicans sp3902 = conditions: sp3902, 48 h; for MIC: pH 7
C. albicans sp3903 = conditions: sp3903, 48 h; for MIC: pH 7
C. albicans sp3931 = conditions: sp3931, 48 h; for MIC: pH 7
C. albicans sp3876 = conditions: sp3876, 48 h; for MIC: pH 7
human erythrocytes = conditions: for HC10: red cells of human, 1 h
IPEC-J2 cells = conditions: IPEC-J2 cells, MTT, 24 h treatment, 1-64 μM; probit regression
PMEC cells = conditions: PMEC cells, MTT, 24 h treatment, 1-64 μM; probit regression
IPEC-J2 and PMEC cells = test: Cytotoxicity MTT assay, statements for both cell lines; conditions: 24 h

Row | Substance | MFC (C. albicans cgmcc 2.2086) [µM] | MIC (C. albicans cgmcc 2.2086) [µM] | MFC [1] [µM] | MIC [1] [µM] | MFC [2] [µM] | MIC [2] [µM] | MFC (C. albicans 56452) [µM] | MIC (C. albicans 56452) [µM] | MFC (C. albicans 56214) [µM] | MIC (C. albicans 56214) [µM] | MFC (C. albicans 14936) [µM] | MIC (C. albicans 14936) [µM] | MFC (C. albicans 17546) [µM] | MIC (C. albicans 17546) [µM] | MFC (C. albicans 58288) [µM] | MIC (C. albicans 58288) [µM] | MFC (C. albicans sp3902) [µM] | MIC (C. albicans sp3902) [µM] | MFC (C. albicans sp3903) [µM] | MIC (C. albicans sp3903) [µM] | other results
1 | KIGKVLLVKGIK-NH2 [KV2] | >64 | >64 | >64 | >64 | >64 | >64 | >64 | >64 | >64 | >64 | >64 | >64 | >64 | >64 | >64 | >64 | >64 | >64 | >64 | >64 | MFC (C. albicans sp3931): >64 µM; MIC (C. albicans sp3931): >64 µM; MFC (C. albicans sp3876): >64 µM; MIC (C. albicans sp3876): >64 µM
2 | KIGKWLLWKGIKKIGKWL-NH2 [KW3] | 8 | 4 | 2 | 2 | 8 | 8 | 4 | 4 | 8 | 4 | 8 | 8 | 8 | 8 | 8 | 8 | 2 | 2 | 8 | 4 | MFC (C. albicans sp3931): 8 µM; MIC (C. albicans sp3931): 8 µM; MFC (C. albicans sp3876): 8 µM; MIC (C. albicans sp3876): 8 µM; hemolytic activity (in words) (human erythrocytes): strong hemolytic activities; HC10 (human erythrocytes): 2.69 µM; IC50 (IPEC-J2 cells): 6.84 µM; IC50 (PMEC cells): 10.3 µM; concentration at which statistically significant cytotoxic effects started (IPEC-J2 and PMEC cells): 4 µM
3 | RIGRVLLVRGIRRIGRVL-NH2 [RV3] | 32 | 32 | 16 | 8 | 32 | 16 | 16 | 16 | 32 | 16 | 32 | 32 | 64 | 64 | 32 | 32 | 32 | 32 | 32 | 32 | MFC (C. albicans sp3931): 32 µM; MIC (C. albicans sp3931): 32 µM; MFC (C. albicans sp3876): 32 µM; MIC (C. albicans sp3876): 32 µM; HC10 (human erythrocytes): >64 µM; IC50 (IPEC-J2 cells): > 64 µM; IC50 (PMEC cells): > 64 µM; cytotoxic effects (in words) (IPEC-J2 and PMEC cells; 1-64 μM): negligible cytotoxic effects
4 | RIGRWLLWRGIRRIGRWL-NH2 [RW3] | 4 | 4 | 2 | 2 | 4 | 4 | 4 | 4 | 2 | 2 | 4 | 4 | 8 | 8 | 8 | 4 | 2 | 2 | 8 | 2 | MFC (C. albicans sp3931): 4 µM; MIC (C. albicans sp3931): 4 µM; MFC (C. albicans sp3876): 4 µM; MIC (C. albicans sp3876): 4 µM; hemolytic activity (in words) (human erythrocytes): strong hemolytic activities; HC10 (human erythrocytes): 3.81 µM; IC50 (IPEC-J2 cells): 14.8 µM; IC50 (PMEC cells): 22.3 µM; concentration at which statistically significant cytotoxic effects started (IPEC-J2 and PMEC cells): 8 µM
